Measured values: PMC11995724, “Antibiotic target discovery by integrated phenotypic and activity-based profiling of electrophilic fragments” (Cell chemical biology, 2025)
Structures can show the parent of a compound that is named as a salt.

Test: in vitro
Conditions: human, hek293t cells

Row | Compound | viability at 48 h, 25 µM [%]
1 | CC(NC(=O)CCl)c1ccc2c(c1)CCCC2 (centres unmarked) [4-B03, 2-chloro-N-[1-(5,6,7,8-tetrahydronaphthalen-2-yl)ethyl]acetamide] | 1.06
2 | O=C(CCl)Nc1cc(C(=O)O)cc(C(=O)O)c1 [4-B04, 5-(2-chloroacetamido)benzene-1,3-dicarboxylic acid] | 107
3 | CN(CC(=O)Nc1ccc(F)cc1)C(=O)CCl [4-B05, 2-chloro-N-{[(4-fluorophenyl)carbamoyl]methyl}-N-methylacetamide] | 0.41
4 | O=C(CCl)Nc1cc(Cl)c(Cl)cc1Cl [4-B06, 2-chloro-N-(2,4,5-trichlorophenyl)acetamide] | 0.135
5 | CC(NC(=O)c1ccccc1NC(=O)CCl)c1ccccc1 (centres unmarked) [4-B07, 2-(2-chloroacetamido)-N-(1-phenylethyl)benzamide] | 0.478
6 | COc1ccc(NC(=O)CCl)cc1S(=O)(=O)N1CCCCC1 [4-B08, 2-chloro-N-[4-methoxy-3-(piperidine-1-sulfonyl)phenyl]acetamide] | 0.454
7 | Cc1cccc(Cc2cnc(NC(=O)CCl)s2)c1 [4-B09, 2-chloro-N-{5-[(3-methylphenyl)methyl]-1,3-thiazol-2-yl}acetamide] | -0.447
8 | O=C(CCl)Nc1ccc(SC(F)F)cc1 [4-B10, 2-chloro-N-{4-[(difluoromethyl)sulfanyl]phenyl}acetamide] | -0.0257
9 | O=C(CCl)N(Cc1ccc(F)cc1)C12CC3CC(CC(C3)C1)C2 [4-B11, N-(adamantan-1-yl)-2-chloro-N-[(4-fluorophenyl)methyl]acetamide] | -0.169
10 | O=C(CCl)Nc1ccc2ccccc2c1 [4-B12, 2-chloro-N-(naphthalen-2-yl)acetamide] | 0.59
11 | Cc1ccc(C(=O)CN(C(=O)CCl)c2ccccc2)cc1 [4-B13, 2-chloro-N-[2-(4-methylphenyl)-2-oxoethyl]-N-phenylacetamide] | 0.038
12 | O=C(CCl)Nc1ccc(S(=O)(=O)Nc2nccs2)cc1 [4-B14, 2-chloro-N-{4-[(1,3-thiazol-2-yl)sulfamoyl]phenyl}acetamide] | 1.19
13 | CC(Cl)C(=O)Nc1c(C(C)C)cccc1C(C)C (centres unmarked) [4-B15, N-[2,6-bis(propan-2-yl)phenyl]-2-chloropropanamide] | 93.3
14 | CC(Cl)C(=O)Nc1c(Cl)cccc1Cl (centres unmarked) [4-B16, 2-chloro-N-(2,6-dichlorophenyl)propanamide] | 128
15 | CCOC(=O)c1ccccc1NC(=O)CCl [4-B17, ethyl 2-(2-chloroacetamido)benzoate] | 45.3
16 | O=C(CCl)Nc1ccccc1S(=O)(=O)C(F)F [4-B18, 2-chloro-N-(2-difluoromethanesulfonylphenyl)acetamide] | 38.2
17 | Cc1ccc(C(=O)c2ccccc2)c(NC(=O)CCl)c1 [4-B19, N-(2-benzoyl-5-methylphenyl)-2-chloroacetamide] | 0.105
18 | O=C(CCl)N(Cc1ccccc1)CC(F)(F)F [4-B20, N-benzyl-2-chloro-N-(2,2,2-trifluoroethyl)acetamide] | 1.12
19 | CN(C)C(CNC(=O)CCl)c1ccccc1 (centres unmarked) [4-B21, 2-chloro-N-[2-(dimethylamino)-2-phenylethyl]acetamide hydrochloride] | 79.8

Row | Compound | viability at 48 h, 25 µM [%]
20 | N#Cc1nc(-c2ccco2)oc1N1CCN(C(=O)CCl)CC1 [4-B22, 5-[4-(2-chloroacetyl)piperazin-1-yl]-2-(furan-2-yl)-1,3-oxazole-4-carbonitrile] | 0.503
21 | O=C(CCl)Nc1ccccc1C(=O)NCc1ccccc1 [4-C03, N-benzyl-2-(2-chloroacetamido)benzamide] | 0.33
22 | Cc1c(C#N)c(NC(=O)CCl)n(Cc2cccs2)c1C [4-C04, 2-chloro-N-{3-cyano-4,5-dimethyl-1-[(thiophen-2-yl)methyl]-1H-pyrrol-2-yl}acetamide] | 0.255
23 | CCN(CC)C(=O)c1ccc(NC(=O)CCl)cc1 [4-C05, 4-(2-chloroacetamido)-N,N-diethylbenzamide] | 0.463
24 | Cc1ccc(-c2cc(NC(=O)CCl)n(-c3ccccc3)n2)cc1 [4-C06, 2-chloro-N-[3-(4-methylphenyl)-1-phenyl-1H-pyrazol-5-yl]acetamide] | -0.283
25 | COc1ccc(C(C)(C)C)cc1NC(=O)CCl [4-C07, N-(5-tert-butyl-2-methoxyphenyl)-2-chloroacetamide] | 0.79
26 | CC(Cl)C(=O)N1c2ccccc2NC(=O)C1(C)C (centres unmarked) [4-C08, 4-(2-chloropropanoyl)-3,3-dimethyl-1,2,3,4-tetrahydroquinoxalin-2-one] | 69.5
27 | CCCc1ccc(-c2csc(NC(=O)CCl)n2)cc1 [4-C09, 2-chloro-N-[4-(4-propylphenyl)-1,3-thiazol-2-yl]acetamide] | 1.34
28 | Cc1cccc(NC(=O)c2ccccc2NC(=O)CCl)c1 [4-C10, 2-(2-chloroacetamido)-N-(3-methylphenyl)benzamide] | -0.0841
29 | O=C(CCl)Nc1ccc(N=Nc2ccccc2)cc1 [4-C11, 2-chloro-N-[4-(2-phenyldiazen-1-yl)phenyl]acetamide] | 0.339
30 | CC(Cl)C(=O)Nc1ccc(Cl)c(C(F)(F)F)c1 (centres unmarked) [4-C12, 2-chloro-N-[4-chloro-3-(trifluoromethyl)phenyl]propanamide] | 51
31 | CSc1nsc(NC(=O)CCl)n1 [4-C13, 2-chloro-N-[3-(methylsulfanyl)-1,2,4-thiadiazol-5-yl]acetamide] | 63.6
32 | CC(Cl)C(=O)Nc1ccc(Cl)cc1F (centres unmarked) [4-C14, 2-chloro-N-(4-chloro-2-fluorophenyl)propanamide] | 58.6
33 | COc1ccc(N(CC(F)(F)F)C(=O)CCl)cc1 [4-C15, 2-chloro-N-(4-methoxyphenyl)-N-(2,2,2-trifluoroethyl)acetamide] | 0.659
34 | CC(C)c1ccc(-c2cc(NC(=O)CCl)n(-c3ccccc3)n2)cc1 [4-C16, 2-chloro-N-{1-phenyl-3-[4-(propan-2-yl)phenyl]-1H-pyrazol-5-yl}acetamide] | -0.013
35 | O=C(CCl)N(Cc1ccccc1)c1nc2c(s1)CCCC2 [4-C17, N-benzyl-2-chloro-N-(4,5,6,7-tetrahydro-1,3-benzothiazol-2-yl)acetamide] | 0.212
36 | COc1ccccc1N(CC(F)(F)F)C(=O)CCl [4-C18, 2-chloro-N-(2-methoxyphenyl)-N-(2,2,2-trifluoroethyl)acetamide] | 7.84
37 | O=C(CCl)N1CCN(S(=O)(=O)c2cccc([N+](=O)[O-])c2)CC1 [4-C19, 2-chloro-1-[4-(3-nitrobenzenesulfonyl)piperazin-1-yl]ethan-1-one] | 1.45
38 | CCc1ccc(C(NC(=O)CCl)c2cccc(F)c2)cc1 (centres unmarked) [4-C20, 2-chloro-N-[(4-ethylphenyl)(3-fluorophenyl)methyl]acetamide] | 0.508

Row | Compound | viability at 48 h, 25 µM [%]
39 | O=C(CCl)Nc1ccc(C(=O)O)cc1[N+](=O)[O-] [4-C21, 4-(2-chloroacetamido)-3-nitrobenzoic acid] | 63.3
40 | O=C(CCl)N1N=C(c2ccsc2)CC1c1cccc(F)c1 (centres unmarked) [4-C22, 2-chloro-1-[5-(3-fluorophenyl)-3-(thiophen-3-yl)-4,5-dihydro-1H-pyrazol-1-yl]ethan-1-one] | 0.063
41 | CN(CC(=O)Nc1ccc(Cl)cc1)C(=O)CCl [4-D03, 2-chloro-N-{[(4-chlorophenyl)carbamoyl]methyl}-N-methylacetamide] | 0.468
42 | Cc1cccc(NC(=O)CCl)c1C [4-D04, 2-chloro-N-(2,3-dimethylphenyl)acetamide] | 1.62
43 | CN(CC(=O)Nc1ccccc1Cl)C(=O)CCl [4-D05, 2-chloro-N-{[(2-chlorophenyl)carbamoyl]methyl}-N-methylacetamide] | 0.034
44 | CCn1c2ccccc2c2cc(NC(=O)CCl)ccc21 [4-D06, 2-chloro-N-(9-ethyl-9H-carbazol-3-yl)acetamide] | 9.48
45 | CC1CCc2c(sc(NC(=O)CCl)c2C(=O)OC(C)C)C1 (centres unmarked) [4-D07, propan-2-yl 2-(2-chloroacetamido)-6-methyl-4,5,6,7-tetrahydro-1-benzothiophene-3-carboxylate] | 73.7
46 | O=C(CCl)Nc1cccc(S(=O)(=O)NC2=NCCCCC2)c1 [4-D08, N-{3-[(azepan-2-ylidene)sulfamoyl]phenyl}-2-chloroacetamide] | 1.32
47 | Cc1c(C#N)c(NC(=O)CCl)n(Cc2ccco2)c1C [4-D09, 2-chloro-N-{3-cyano-1-[(furan-2-yl)methyl]-4,5-dimethyl-1H-pyrrol-2-yl}acetamide] | -0.0889
48 | Cc1ccc(Cl)c(NC(=O)CCl)c1Cl [4-D10, 2-chloro-N-(2,6-dichloro-3-methylphenyl)acetamide] | 1.7
49 | CC(Cl)C(=O)Nc1ccccc1Cl (centres unmarked) [4-D11, 2-chloro-N-(2-chlorophenyl)propanamide] | 97.8
50 | CC(C)CN(C(=O)CCl)C1CCS(=O)(=O)C1 (centres unmarked) [4-D12, 2-chloro-N-(1,1-dioxo-1lambda6-thiolan-3-yl)-N-(2-methylpropyl)acetamide] | 2.44
51 | CC(C)c1cc(O)nc(N2CCC(NC(=O)CCl)C2)n1 (centres unmarked) [4-D13, 2-chloro-N-{1-[4-hydroxy-6-(propan-2-yl)pyrimidin-2-yl]pyrrolidin-3-yl}acetamide] | 2.02
52 | CC(Cl)C(=O)NCCc1cccs1 (centres unmarked) [4-D14, 2-chloro-N-[2-(thiophen-2-yl)ethyl]propanamide] | 111
53 | COc1ccc(NC(=O)CCl)cc1S(=O)(=O)N1CCOCC1 [4-D15, 2-chloro-N-[4-methoxy-3-(morpholine-4-sulfonyl)phenyl]acetamide] | 0.627
54 | Cc1ccc(NC(=O)CN2CCN(C(=O)CCl)CC2)cc1 [4-D16, 2-[4-(2-chloroacetyl)piperazin-1-yl]-N-(4-methylphenyl)acetamide hydrochloride] | 0.854
55 | CC(Cl)C(=O)Nc1cc(Cl)cc(Cl)c1 (centres unmarked) [4-D17, 2-chloro-N-(3,5-dichlorophenyl)propanamide] | 67.8
56 | O=C(CCl)NCC(=O)Nc1ccc(F)c(F)c1F [4-D18, 2-chloro-N-{[(2,3,4-trifluorophenyl)carbamoyl]methyl}acetamide] | 2.12
